According to patent US12466819B2, “Tricyclic compounds with OMA1/OPA1 modulatory properties” (712 North Inc., priority 2019, dated 2025):
“Also recorded” adds a separate entry of the source. Where two headings read alike, the source gives them in different places.

Key:
[1] = target: T1, OMA1 protease (OPA1 cleavage) (Mus musculus, UniProt Q9D8H7); test: OPA1 cleavage in Neuro2A cells by OPA1 Western blotting; format: cell-based; settings: 100 μM sorafenib; for OPA1 cleavage after 3 hours: 100 μM trichostatin A; for OPA1 cleavage after 30 minutes: 5 μM CCCP, 1 μM valinomycin
T1 construct: endogenous in cells; host or cells: Neuro2A cells
T1 sequence (Q9D8H7 140-521): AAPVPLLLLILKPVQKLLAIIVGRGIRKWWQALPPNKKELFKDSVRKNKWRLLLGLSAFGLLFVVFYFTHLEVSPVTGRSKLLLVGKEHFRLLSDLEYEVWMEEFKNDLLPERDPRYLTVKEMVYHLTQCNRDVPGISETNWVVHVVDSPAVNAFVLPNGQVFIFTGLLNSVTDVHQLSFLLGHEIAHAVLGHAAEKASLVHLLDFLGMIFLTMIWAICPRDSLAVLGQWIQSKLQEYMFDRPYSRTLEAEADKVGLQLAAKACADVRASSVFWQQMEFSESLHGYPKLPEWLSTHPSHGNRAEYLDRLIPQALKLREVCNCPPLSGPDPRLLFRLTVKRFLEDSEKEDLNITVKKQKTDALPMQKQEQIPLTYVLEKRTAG
Text: FIG. 1. A: The YME1L1 protease regulates the OPA1 ratios under physiological conditions (a). The OMA1 protease converts all OPA1 isoforms to S-OPA1 under conditions broadly defined as stress conditions (b). […] OMA1 knock-down could prevent OPA1 hydrolyses in these experiments. C: Quantification of OMA1 protein levels in Western blots upon OMA1 knock-down (mean±S.D.; p≤0.05; n=3). D: Different chemicals and combinations of chemicals altered the OPA1 ratios in 293T cells. E: Neuro2A cells were treated with the indicated agents for 30 minutes or 3 hours, respectively.
(§1) A nonlimiting example of a method of testing compounds for their efficacy to induce OPA1-cleavage and/or OMA1 activation is provided in FIG. 1, for which human 293T cells or mouse Neuro2A cells were treated with different agents and subsequently tested for OPA1-hydrolysis by Western blotting. […] OPA1 cleavage in these experiments is OMA1 dependent, because knock-down of the protease preserved L-OPA1 (FIG. 1B & 1C).
Another example is provided in FIG. 1E, for which Neuro2A cells were treated with different reagents for 30 minutes or 3 hours prior to the assessment of OPA1 by Western blotting. Some compounds acted faster while others were slower in altering the OPA1 ratios. […] Trichostatin A had no effect even after 3 hours of treatment. […] In certain embodiments, a pharmaceutical composition comprising an effective amount of sorafenib or a derivate, a prodrug or a pharmaceutical acceptable salt thereof and an effective amount of temozolomide or a derivate, a prodrug or a pharmaceutical acceptable salt thereof is administered to a subject with cancer.

[2] = target: T2, OMA1 protease (OPA1 cleavage) (Homo sapiens, UniProt Q96E52); test: OPA1 cleavage / OMA1 activation in 293T cells by OPA1 Western blotting; format: cell-based; settings: for critical CCCP concentration (threshold-level) for L-OPA1 cleavage after preincubation with compound: 30 μM compound for 60 minutes; for OPA1 cleavage by compound alone, 100 μM: 100 μM (up to 100 μM for VI); for OPA1 cleavage with compound plus 1 μM CCCP: 60 minutes compound (30 μM MMP2/9 inhibitor IV, 300 μM temozolomide, 100 μM amoxapine), then 1 μM CCCP for 30 minutes
T2 construct: endogenous in cells; host or cells: 293T cells
T2 sequence (Q96E52 144-524): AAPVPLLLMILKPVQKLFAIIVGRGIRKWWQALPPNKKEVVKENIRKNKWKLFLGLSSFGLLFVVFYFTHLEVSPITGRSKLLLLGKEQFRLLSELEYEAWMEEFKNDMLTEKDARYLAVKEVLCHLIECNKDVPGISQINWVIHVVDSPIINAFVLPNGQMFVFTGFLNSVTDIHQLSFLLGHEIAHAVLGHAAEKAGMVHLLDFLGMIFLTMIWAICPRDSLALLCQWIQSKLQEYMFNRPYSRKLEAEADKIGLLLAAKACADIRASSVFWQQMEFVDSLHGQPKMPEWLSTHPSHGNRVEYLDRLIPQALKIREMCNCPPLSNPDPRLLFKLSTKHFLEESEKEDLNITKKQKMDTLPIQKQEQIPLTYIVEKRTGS
Procedure: FIG. 6. A: 293T cells were treated with 0 μM, 1 μM, 2 μM, 3 μM, 4 μM, or 5 μM CCCP for 30 minutes after which OPA1 was analyzed by Western blotting. […] E: OPA1 cleavage in Neuro2A cells treated with 30 μM of the indicated agents for 90 minutes (60 min preincubation plus 30 min of CCCP).
FIG. 7. Compounds of present invention can lower CCCP-levels for OMA1 activation gauged by OPA1 cleavage in Western blots. A-C: 293T cells were treated with the denoted concentrations of compound VII, IV and V for 60 minutes before CCCP was added for an additional 30 minutes. D-E: 293T cells were treated with the denoted concentrations of compound VII, IV and V for 6 hours before CCCP was added for an additional 30 minutes.
FIG. 11. A: A likely binding pose of a compound of present invention illustrates aspects of the drug-target interaction. B: 293T cells were treated with the denoted concentrations of compound for 90 minutes before cells were harvested and analyzed by OPA1 Western blotting. C: 293T cells were treated with the denoted concentrations of compound VI for 60 minutes and another 30 minutes with 1 μM CCCP before cells were harvested and analyzed by OPA1 Western blotting.
as §1
A nonlimiting example illustrates specific features of certain compounds disclosed herein and teaches how potency of such compounds can be further improved. To this end, compound were analyzed for their potential to lower threshold-levels for OPA1 cleavage and/or OMA1 activation using the methods described in Example 3. In one example, L-OPA1 was cleaved in untreated 293T cells at concentrations ≥5 μM CCCP (FIG. 6A, top panel). […] Preincubation with 30 μM MMP2 inhibitor II (CAS #869577-51-5) lowered the threshold-level even further to about 1 μM CCCP (FIG. 6C, bottom panel). The skilled artisan can recognize how (and the not-so-skilled artisan certainly appreciates that) substitutions and modifications of the thiirane-opposed end of the molecule increased potency.

[3] = test system: mitochondrial membrane potential Δψ
Procedure: (§2) The mitochondrial inner membrane potential Δψ was measured with a cellular TMRE-assay, in which a reduction of Δψ results in a reduced TMRE signal (see insert in A). […] A: Vehicle only. […] D: compound VII. E: compound IV. F: compound V.
(§3) It is well established in the art that CCCP can lower the mitochondrial membrane potential Δψ. […] 293T cells were cultured overnight with different compound concentrations after which TMRE fluorescence was measured with a fluorescence plate-reader (FIG. 10).

[4] = test system: mitochondrial membrane potential Δψ; test: TMRE live-cell assay in 293T cells; settings: for impact on mitochondrial membrane potential Δψ (TMRE signal): overnight (18 hours), different compound concentrations
Procedure: as §2, §3

OMA1 = target: T3, OMA1 (Homo sapiens, UniProt Q96E52); test: Luciferase-based cellular reporter of enzymatic OMA1 activity in 293T cells; format: cell-based; settings: 293T reporter cells; for OMA1 activation without stress-stimulus at 40 μM: overnight, no CCCP or valinomycin
T3 construct: 293T cells stably transfected with the reporter enzyme were incubated with increasing concentrations of a compound and 30 nM valinomycin; endogenous in cells; host or cells: 293T cells stably transfected with a luciferase-based reporter enzyme (only the reporter is transfected, not OMA1)
T3 sequence (Q96E52 144-524): T2 sequence (Q96E52 144-524)
Procedure: FIG. 8. 293T cells expressing a luciferase-based cellular reporter were incubated for 1 hour with increasing concentrations of the denoted compounds in cell culture media with 30 nM valinomycin before luciferase substrate was added and light emission measured. OMA1 activity decreases the light signal of the reporter in this assay. A: Vehicle only. […] C: amoxapine. D: compound VII. E: compound IV. F: compound V.
FIG. 9. 293T cells expressing a luciferase-based cellular reporter were incubated overnight with increasing concentrations of the denoted compounds. Luciferase substrate was added the next day and light emission measured. A: Vehicle only. […] C: amoxapine. D: compound VII. E: compound IV. F: compound V.
The following non-limiting examples illustrate some aspects of the mechanism of action of the compounds disclosed herein. An alternative method of measuring enzymatic OMA1 activity makes use of a luciferase-based cellular reporter, which can be transiently or stably expressed in eukaryotic cells. In this assay, OMA1 cleaves the reporter enzyme upon activation and thereby obliterates the luciferase signal. 293T cells stably transfected with the reporter enzyme were incubated with increasing concentrations of a compound and 30 nM valinomycin. Valinomycin is known in the art to induce OPA1 cleavage (see, for example, Head B., et al. “Inducible proteolytic inactivation of OPA1 mediated by the OMA1 protease in mammalian cells.” J Cell Biol. 2009; 187(7):959-66, as well as FIG. 1E). […] This specific example illustrates how compounds of present invention can activate OMA1 under conditions that would otherwise not lead to OMA1 activation. This example also provides an independent validation of the results obtained by Western blotting.
Incubation time is a variable of OMA1 activation for certain compounds (see, for example, sorafenib in FIG. 1E). To investigate whether compounds of present disclosure would activate OMA1 in the absence of a stress-stimulus such as CCCP or valinomycin, reporter cells were incubated with increasing compound concentrations overnight (FIG. 9). […]

[5] = 293T cells, then CCCP for another 30 minutes
[6] = cells treated 60 minutes with compound, then CCCP for another 30 minutes
[7] = 293T cells, 90 minutes, absence of CCCP
[8] = 293T cells, pre-incubation of 6 hours before CCCP for an additional 30 minutes

CC(/C=C/C(=O)NO)=C\[C@@H](C)C(=O)c1ccc(N(C)C)cc1 [Trichostatin A, trichostatin A]
OPA1 cleavage after 3 hours [1]: no effect

CS(=O)(=O)Nc1ccc(Oc2ccc(S(=O)(=O)CC3CO3)cc2)cc1 (stereo not drawn) [MMP2 inhibitor II]
critical CCCP concentration (threshold-level) for L-OPA1 cleavage after preincubation with compound [2, 5]: about 1 μM | effective dose (OPA1 cleavage) [2, 6]: about 30 μM

O=S(=O)(CC1CS1)c1ccc(Oc2ccccc2)cc1 (stereo not drawn) [MMP2/9 inhibitor IV]
impact on mitochondrial membrane potential Δψ (TMRE signal) [3]: only little impact on Δψ | critical CCCP concentration (threshold-level) for L-OPA1 cleavage after preincubation with compound [2, 5]: about 2 μM | OPA1 cleavage by compound alone, 30 μM ([2]; 293T cells, 30 μM, 90 minutes, absence of CCCP): did not induce OPA1 cleavage | OPA1 cleavage by compound alone, 100 μM [2, 7]: no effects on L-OPA1 | OPA1 cleavage with compound plus 1 μM CCCP ([2]; 293T cells): led to OPA1 cleavage

CNC(=O)c1cc(Oc2ccc(NC(=O)Nc3ccc(Cl)c(C(F)(F)F)c3)cc2)ccn1 [sorafenib]
OPA1 cleavage after 30 minutes [1]: only little effect | OPA1 cleavage after 3 hours [1]: L-OPA1 was completely converted

C=CCSc1ccc2c(c1)C(=O)Nc1ccccc1O2 [IV, 2-(allylthio)dibenzo[b,f][1,4]oxazepin-11(10H)-one]
impact on mitochondrial membrane potential Δψ (TMRE signal) [4]: only little impact on Δψ

N#CC(C#N)=NNc1cccc(Cl)c1 [CCCP]
TMRE signal with 0.6 μM CCCP ([4]; 0.6 μM CCCP): significantly reduced the TMRE signal | OPA1 cleavage after 30 minutes [1]: enough to induce OPA1 cleavage | OPA1 cleavage by 1 μM CCCP alone ([2]; 293T cells, 1 μM CCCP, 30 minutes): did not induce OPA1 cleavage | L-OPA1 cleavage by 10 μM CCCP ([2]; 293T cells, 10 μM CCCP, 30 minutes): resulted in L-OPA1 cleavage | CCCP concentration at which L-OPA1 was cleaved ([2]; untreated 293T cells, CCCP 30 minutes): ≥ 5 µM

O=C1Nc2ccccc2Oc2ccc(S(=O)(=O)CC3CS3)cc21 (stereo not drawn) [Compound VI]
conversion of L-OPA1 isoforms at 300 nM ([2]; 293T cells, 300 nM compound, presence of 1 μM CCCP): fully convert all L-OPA1 isoforms | OPA1 cleavage by compound alone, 100 μM [2, 7]: did not induce OPA1 cleavage | effective dose (OPA1 cleavage) ([2]; 293T cells, 60 minutes compound, another 30 minutes with 1 μM CCCP): 300 nM | effective dose better than compound IV ([2]; 293T cells, with CCCP): 10 times | more potent in inducing OPA1 hydrolysis than MMP2/9 inhibitor IV or amoxapine ([2]; 293T cells, with CCCP): 100 times

O=C1Nc2ccccc2Oc2ccc(S(=O)(=O)CC3CO3)cc21 (stereo not drawn) [Compound V]
impact on mitochondrial membrane potential Δψ (TMRE signal) [4]: only little impact on Δψ | efficacy in OPA1 cleavage in the presence of CCCP ([2]; 293T cells, 60 minutes compound, then CCCP 30 minutes): some efficacy; also recorded: overall little activity | OPA1 cleavage at the tested concentrations after extended pre-incubation [2, 8]: did result in OPA1 cleavage | potency (effective dose) after extended pre-incubation [2, 8]: about 1 μM

Clc1ccc2c(c1)C(N1CCNCC1)=Nc1ccccc1O2 [amoxapine]
impact on mitochondrial membrane potential Δψ (TMRE signal) [4]: only little impact on Δψ | OMA1 activation without stress-stimulus at 40 μM (OMA1): OMA1 activation was noted | OPA1 cleavage by compound alone, 100 μM [2, 7]: no effect on OPA1 cleavage; also recorded: no perceptible effects | OPA1 cleavage with compound plus 1 μM CCCP ([2]; 293T cells): OPA1 cleavage was observed

CC(C)[C@@H]1NC(=O)[C@H](C)OC(=O)[C@@H](C(C)C)NC(=O)[C@@H](C(C)C)OC(=O)[C@H](C(C)C)NC(=O)[C@H](C)OC(=O)[C@@H](C(C)C)NC(=O)[C@@H](C(C)C)OC(=O)[C@H](C(C)C)NC(=O)[C@H](C)OC(=O)[C@@H](C(C)C)NC(=O)[C@@H](C(C)C)OC1=O [valinomycin]
OPA1 cleavage after 30 minutes [1]: enough to induce OPA1 cleavage | effect of 30 nM valinomycin alone on reporter signal (OMA1; 1 hour, 30 nM valinomycin, vehicle only): only little effects

C=CCSc1ccc2c(c1)C(N1CCNCC1)=Nc1ccccc1O2 [VII]
impact on mitochondrial membrane potential Δψ (TMRE signal) [4]: only little impact on Δψ | OMA1 activation without stress-stimulus at 40 μM (OMA1): OMA1 activation was noted | OPA1 cleavage at the tested concentrations after extended pre-incubation [2, 8]: did result in OPA1 cleavage | effective dose (OPA1 cleavage) [2, 6]: about 10 μM | increase of potency compared to amoxapine ([2]; from effective doses in 293T cells): about 3 fold
